This note sets out measurements from PubChem BioAssay AID467 (The Scripps Research Institute Molecular Screening Center, 2006).

In general, EC50 refers to the concentration at which the effect is half-maximal.

The subject of the experiment is parental cell line counter screen, S1P1 agonist assay readout. Briefly: signal in parental cells, counter-screen for S1P1 agonist project (AID 467).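 Note: agonist potency measured against forskolin stimulation plus an EC20 level of SEW2871.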

Calls of active or inactive are those of the source. The rule behind the calls is not given here.

In the case of `Oc1ccc(N2CCN(c3ncnc4sc5c(c34)CCC5)CC2)cc1`, the EC50 is > 95.1 µM (inactive).
On to `Fc1ccc2[nH]c3c(N4CCSCC4)ncnc3c2c1`, for which the EC50 is 11 µM (inactive).
On to `Nc1c(C(=O)NC2CCCC2)sc2nc(-c3cccs3)ccc12`, for which the EC50 is 23.1 µM (inactive).
The value for `Cc1nn(-c2nc3ccccc3s2)c(N)c1-c1ccccc1` was > 95.1 µM (inactive); that for `c1ccc2c(c1)CCN(c1ncnc3c1[nH]c1ccccc13)C2` was 5.88 µM; that for `COc1ccccc1N/C(N)=N/c1nc(CSc2ccc(C)cc2)cc(=O)[nH]1` was > 95.1 µM (inactive).
As for `CC1Cc2ccccc2N1c1ncnc2nc[nH]c12` (stereo not given), the EC50 was 11.4 µM (inactive).
As to `O=C1C2CCCN2C(c2cccnc2)N1c1cccc(Cl)c1` (stereo not given), the EC50 is > 95.1 µM (inactive).
The figure for `N#Cc1nc(-c2ccc(OCc3ccccc3)cc2)oc1NCc1cccnc1` is > 95.1 µM (inactive); for `Cn1c(C(=O)N2CCCc3ccccc32)cc2sccc21` it is > 95.1 µM (inactive).
Regarding `COc1ccc(CCNc2c(C)c(C)nc3ncnn23)cc1`, the EC50 was 43.4 µM (inactive).
On to `O=C(Nc1c(F)cc(F)cc1Br)c1cc(-c2ccc(O)cc2)on1`, for which the EC50 was 53.6 µM (inactive).
Consider `CCOC(=O)c1sc2nc(NC(=O)C3CCCCC3)sc2c1C`, for which the EC50 was > 95.1 µM (inactive).
For the compound `O=S(=O)(C/C(=C/CO)S(=O)(=O)c1ccccc1)c1ccccc1`, the EC50 was 2.21 µM.
For `CCCCCn1c(=O)c(C(=O)NCc2ccncc2)c(O)c2ccccc21`, the EC50 was 30.8 µM (inactive).
As for `CCCc1cc(C(=O)Nc2sc(C)c(CC)c2C#N)no1`, the EC50 is > 95.1 µM (inactive).
Take `Cc1ccc(S(=O)(=O)Nc2ccc3ncccc3c2)cc1`: the EC50 is > 30 µM (inactive).
For the compound `Cn1c(-c2c(N)n(C3CCCC3)c3nc4ccccc4nc23)nc2ccccc21`, the EC50 was 1.96 µM.
The figure for `Cc1cc(N2CCN(c3nc4ccccc4s3)CC2)n2ncnc2n1` is > 95.1 µM (inactive).
As for `CCN(CC)S(=O)(=O)c1cccc(S(=O)(=O)c2cccc(S(=O)(=O)N(CC)CC)c2)c1`, the EC50 is > 95.1 µM (inactive).
With `COc1ccc(-n2nnnc2S(=O)(=O)CC(=O)N2CCCCC2)cc1`, the half-maximal effective concentration (EC50) was 2.35 µM.
The figure for `c1ccc(N2CCN(Cc3ccnc4ccccc34)CC2)cc1` is 47.9 µM (inactive); for `CCC(=NC(C)c1ccccc1)c1c(O)n(C)c(=O)n(C)c1=O` (stereo not given) it is > 30 µM (inactive); for `CSc1ccc(S(=O)(=O)Nc2ccc3c(c2)OCCO3)cc1` it is 67.2 µM (inactive).
Consider `COc1ccccc1-c1nc(-c2ccc(Br)cc2)no1`, for which the EC50 is > 95.1 µM (inactive).
Turning to `Clc1ccc(-c2nc3nc4ccccc4nc3n2Cc2ccco2)cc1`, the EC50 was > 95.1 µM (inactive).
As for `CC(C)N1C(=O)CCC1C(=O)N1CCC(Cc2ccccc2)CC1` (stereo not given), the EC50 was > 95.1 µM (inactive).
Take `Cc1cc2nc(-c3ccc(NC(=O)C(C)C)cc3)oc2cc1C`: the EC50 is > 95.1 µM (inactive).
For the compound `COc1ccc(-c2cn3c(C)c(C(=O)N4CCCc5ccccc54)sc3n2)cc1`, the EC50 is > 95.1 µM (inactive).
The figure for `CCOC(=O)N1CCN(C(=O)C2CCN(c3ncnc4c3sc3cccc(F)c34)CC2)CC1` is 24.2 µM (inactive); for `CCN(CC)c1ccc(-n2c(C)c(C(C)=O)c(C(C)=O)c2C)cc1` it is > 95.1 µM (inactive).
Consider `Cc1ccc2nc(C(F)(F)F)c(C#N)c(N)c2c1`, for which the EC50 is 6.47 µM.
The figure for `Cc1cc(NC(=O)c2oc3ccccc3c2C)ccc1-n1cnnn1` is > 30 µM (inactive).
Regarding `COc1ccc(CNC(=O)c2cc3c(C)nc4ccccc4c3o2)c(OC)c1`, the EC50 was > 95.1 µM (inactive).
As for `CCCn1c(NC(=O)c2cccc(S(=O)(=O)N3CCCC3)c2)nc2ccccc21`, the EC50 is 10.4 µM (inactive).
For `Nn1c(Nc2ccccc2)nc2sc3c(c2c1=O)CCC3`, the EC50 is > 30 µM (inactive).
The figure for `CN1c2ccccc2C(C)(C)C12C=Cc1cc(O)ccc1O2` (stereo not given) is > 10 µM (inactive).
In the case of `Cc1cc(C(=O)CSc2nc3ccccc3c(=O)n2C)c(C)n1Cc1ccc2c(c1)OCO2`, the EC50 is 54.9 µM (inactive).
Regarding `COc1ccccc1-c1nc(-c2cccc(C)c2)no1`, the EC50 is > 95.1 µM (inactive).
As to `C=C(C)COc1ccc(-c2nc(N)nc(C)c2Oc2ccccc2OC)c(O)c1`, the EC50 was > 10 µM (inactive).
Take `Clc1ccc(OCCN2CCN(c3ncnc4sccc34)CC2)cc1`: the EC50 was 2.63 µM.
Regarding `CCOc1nc(C)ccc1-c1noc(-c2ccncc2)n1`, the EC50 was > 95.1 µM (inactive).
The figure for `Cc1nc2sc(-c3ccccc3)cc2c(=O)n1-n1cccc1` is > 95.1 µM (inactive); for `CN(C)c1oc(-c2ccc(OCc3ccccc3)cc2)nc1C#N` it is > 95.1 µM (inactive).
The figure for `Cc1nnc(SCC(=O)N2CCC(c3noc4ccc(F)cc34)CC2)s1` is > 95.1 µM (inactive); for `CCOc1ccc(-c2nc(CSCC(=O)N3CCN(c4cccc(OC)c4)CC3)c(C)o2)cc1` it is 19.4 µM (inactive).
With `Cc1sc2ncnc(Sc3nnnn3-c3ccccc3)c2c1C`, the EC50 is > 30 µM (inactive).
The figure for `COc1ccc(-c2noc(-c3cccc(OC)c3OC)n2)cc1OC` is > 95.1 µM (inactive).
Consider `CCC(C)c1ccc2oc(-c3ccc(NC(=O)c4ncn[nH]4)cc3)nc2c1` (stereo not given), for which the EC50 was > 95.1 µM (inactive).
In the case of `CCCC(=O)c1ccc(N2CCN(C(=O)c3ccccc3Br)CC2)c(F)c1`, the EC50 was 28.2 µM (inactive).
As for `O=C(c1ccco1)N1CCN(c2ncnc3c2[nH]c2ccc(Br)cc23)CC1`, the EC50 is > 10 µM (inactive).
Regarding `N#Cc1ccc(NC(=O)Nc2ccc(Cl)cc2)cc1`, the EC50 was 9.6 µM.
The value for `Cc1cc(C(=O)CSc2nnnn2-c2ccc(O)cc2)c(C)n1Cc1ccc2c(c1)OCO2` was 11.9 µM (inactive).
Consider `COc1cccc(-c2nc(-c3ccc(NC(=O)c4cccnc4)cc3)no2)c1`, for which the EC50 is > 95.1 µM (inactive).
Regarding `Cc1ccc(OCCn2cc(/C(N)=N/O)c3ccccc32)cc1C`, the EC50 was 17 µM (inactive).
The figure for `Fc1ccc2[nH]c3c(N4CCN(Cc5ccc6c(c5)OCO6)CC4)ncnc3c2c1` is 8.16 µM; for `CC(C)OCCCNc1ncnc2c1[nH]c1ccc(F)cc12` it is 24.4 µM (inactive).
Regarding `O=C(NCc1ccco1)C1CCN(C(=O)c2cc3sccc3n2Cc2ccc(Cl)cc2)CC1`, the EC50 was 22.4 µM (inactive).
The value for `COC(=O)CC1SC(=O)NC1=Nc1ccccc1` (stereo not given) was > 95.1 µM (inactive); that for `FC(F)(F)c1ccc(N2CCN(c3cc(-c4ccccc4)nc4ncnn34)CC2)nc1` was > 95.1 µM (inactive); that for `Cc1cc(N2CCN(C(c3ccccc3)c3ccccc3)CC2)n2ncnc2n1` was > 30 µM (inactive).
Consider `CCOc1ccc(C(=O)Nc2ccc(Cl)cn2)cc1Cl`, for which the EC50 is > 95.1 µM (inactive).
The figure for `O=C(Nc1ccc(Oc2ccccc2)cc1)c1cnc2n(c1=O)CCS2` is > 95.1 µM (inactive); for `O=C(C1CCC1)N1CCc2cc(S(=O)(=O)Nc3ccc4c(c3)OCCO4)ccc21` it is > 95.1 µM (inactive); for `NC(=O)c1ccc(OCC(F)(F)C(F)(F)C(F)(F)C(F)(F)C(F)(F)C(F)F)cc1` it is > 95.1 µM (inactive).
`CC(C)c1ccc2oc(-c3ccc(N)cc3)nc2c1`: the EC50 was > 30 µM (inactive).
As to `CC(C)Cc1cc(C(=O)Nc2sc3c(c2C#N)CCCC3)no1`, the EC50 was > 95.1 µM (inactive).
As to `O=C(Nc1ncc(Br)s1)C(Cc1ccccc1)n1cccc1` (stereo not given), the EC50 was > 10 µM (inactive).
Regarding `COc1ccc(OCCCSc2ncccn2)cc1`, the EC50 is > 95.1 µM (inactive).
In the case of `Cc1nc2ccc3nc(NC(=O)C4COc5ccccc5O4)sc3c2s1` (stereo not given), the EC50 was > 95.1 µM (inactive).
Consider `CCOC(=O)c1ccc2nc(NC(=O)c3ccco3)sc2c1`, for which the EC50 is > 95.1 µM (inactive).
In the case of `COc1ccc(OC)c(-c2cc(C(=O)Nc3c(C)nn(Cc4ccc(Cl)cc4)c3C)no2)c1`, the EC50 was > 95.1 µM (inactive).
`Cn1c(=O)oc2cc(S(=O)(=O)N3CCCC(C(=O)N4CC=C(c5ccccc5)CC4)C3)ccc21` (stereo not given): the EC50 was 44.5 µM (inactive).
With `CCOC(=O)C1CCN(c2ncnc3c2oc2ccc(Cl)cc23)CC1`, the EC50 was > 95.1 µM (inactive).
Regarding `CC(C)Oc1cc(O)c2c(=O)c(-c3ccc(O)cc3)coc2c1`, the EC50 is 20.5 µM (inactive).
The figure for `O=C(c1cc(-c2ccccc2)on1)N1CCN(Cc2ccc3c(c2)OCO3)CC1` is > 30 µM (inactive).
For the compound `O=C(Nc1ccc(C(F)(F)F)cc1)C1CCCN1S(=O)(=O)c1cccc2cccnc12` (stereo not given), the EC50 was > 30 µM (inactive).
For `O=C(Cc1c[nH]c2ccccc12)N1CCc2ccccc21`, the EC50 was > 95.1 µM (inactive).
As to `Cc1ccnc(SCC(=O)Nc2sc3c(c2C#N)CCCC3)n1`, the EC50 was > 30 µM (inactive).
Turning to `Fc1ccc2[nH]c3c(N4CCN(c5ccccc5)CC4)ncnc3c2c1`, the EC50 was 18.5 µM (inactive).
